Earlier results as cited in patent US20230046815A1, “Wound honey with a pump dispenser” (priority 2021, published 2023).

Test system: Salmonella sp.
Settings: single agent

SMILES | Minimal Bactericidal Concentration [%]
O=C(O)CC(O)(CC(=O)O)C(=O)O [Citric Acid] | 5
OO [Hydrogen Peroxide] | 3.12
